Legend:
[1] = mouse, in vivo, 10 mg/kg
Description: (§1) Animal housing. […] For pharmacological inhibitor studies, male C3H/HeN mice (Harlan Sprague Dawley, Inc., Indianapolis, Ind.) 10-12 wks of age were evaluated according to the method of Gross et al., Am J Physiol 278: R1415-23, 2000. See also Silver et al., J Clin Invest 95: 725-31, 1995. […] Control mice designated “WT” for the COX KO experiments were WT and heterozygous littermates arising from the COX-2 heterozygous matings. All mouse protocols were in accordance with NIH guidelines and approved by the Animal Care and Use Committee of Washington University School of Medicine.

[2] = LPS-induced weight loss; format: in vivo, mice (C3H/HeN)
Description: as §1

[3] = test system: IL-6; test: Plasma IL-6 after LPS (ELISA); format: in vivo, mice (C3H/HeN)
Source text: (§2) Serum corticosterone, leptin, and IL-6 measurements.

[4] = test system: CRH mRNA; test: Hypothalamic in situ mRNA hybridization, CRH; format: in vivo, mice (C3H/HeN); conditions: Compound 1/LPS group; 16 h after LPS with food withdrawal
Description: Hypothalamic in situ mRNA hybridization. […] After 24 h immersion in 4% paraformaldehyde, hypothalami were cryoprotected in 10% sucrose in DEPC D-PBS. Samples were embedded in OCT (Sakura Finetek USA, Inc., Torrance, Calif.), cut into 10 micron sections on a cryostat, and thaw mounted onto Superfrost plus slides (Fisher Scientific, Pittsburgh, Pa.). In situ hybridization utilized α-^33P-UTP-labelled 320 base anti-sense riboprobe from the mouse CRH gene or a 511 base anti-sense riboprobe from the rat neuropeptide Y (NPY) cDNA (generously provided by Dr. Steven Sabol, NHLBI, NIH) by methods described (e.g., Muglia et al., J Neurosci 19: 2051-8, 1999). For CRH and NPY mRNA detection, the regions of the hypothalamic paraventicular and arcuate nuclei were determined by Nissl staining and light microscopy. Six sections spanning each nucleus were hybridized to CRH (paraventricular nucleus) or NPY (arcuate nucleus) probes, and the two sections of peak intensity imaged for densitometric analysis. Hybridizing probes were quantitated by exposure of slides to Hyperfilm-βMax (Amersham Life Science, Inc., Arlington Heights, Ill.) with densitometric analysis employing NIH Image Software.

[5] = test system: leptin; test: Plasma leptin after LPS (ELISA); format: in vivo, mice (C3H/HeN); conditions: after LPS (3 h and 16 h)
Source text: as §2

[6] = 24 h period following LPS
Description: LPS-induced anorexia. C3H/HeN male mice were singly housed and acclimatized for at least 2 days to cages with grid bottoms prior to treatments. Body weight and food intake was measured daily until a stable baseline was obtained. Mice received either vehicle (phosphate buffered saline; PBS) or 100 μg of lipopolysaccharide (Escherichia coli 0111 :B4, Sigma, St. Louis, Mo.) in PBS via shallow midline, mid-abdominal, intraperitoneal injection. […] To determine the effect of COX inhibition, mice were pretreated with either vehicle (phosphate buffered saline plus 1% Tween 80), or vehicle plus agent 30 minutes prior to i.p. injection of LPS or vehicle, and re-dosed at 8 and 24 hrs after LPS. Cyclooxygenase inhibitors were administered via gavage using olive-tipped needles.

## COc1ccc2c(c1)c(CC(=O)O)c(C)n2C(=O)c1ccc(Cl)cc1 [indomethacin]
[1]
  change in body weight relative to vehicle-treated control mice: no change in body weight
[2]; 100 μg LPS i.p., gavage 30 min before, 8 and 24 h after LPS, indomethacin 150 μg/dose, Compound 1 300 μg/dose
  weight loss associated with LPS administration, vs. vehicle/LPS: tended to reduce the weight loss

## COc1ccc(-n2nc(C(F)(F)F)cc2-c2ccc(Cl)cc2)cc1 [Compound 2]
[2]; 3 days after treatment, 300 μg/dose (10 mg/kg) gavage plus LPS
  body weight in comparison to the vehicle/LPS group: sustained weight reduction

## NS(=O)(=O)c1ccc(-n2nc(C(F)(F)F)cc2-c2ccc(Cl)cc2)cc1 [Compound 1]
[2]; 2 and 3 days after LPS treatment
  difference in weight loss between LPS-treated Compound 1 and Compound 2 groups: remained significant
[3]; 3 h after LPS
  magnitude of early induction of plasma IL-6 vs. LPS alone: no change
[3]; 16 hours after LPS
  sustained increases in plasma IL-6 vs. LPS alone: no change
[4]
  elevation of CRH mRNA in the paraventricular nucleus of the hypothalamus: approximately 3 fold
[5]
  magnitude of induction of leptin, vehicle/LPS vs. Compound 1/LPS: did not differ
[6]
  hypophagic response after LPS: attenuated, but did not completely block the hypophagic response

— patent US20030087942A1, “Method for the treatment and prevention of cachexia” (Washington University, priority 2001, published 2003)
